Results as given in US12138240B2, “Treatment of cardiac dysfunction” (priority 2017, dated 2024).
Like-named read-outs stand apart in the source and are kept apart here.

Assays:
male healthy subjects = experiment: linear exposure-QTcF model (NONMEM); set-up: species or system human; settings: QTcFij=407+0.196*Parent−0.643*Metabolite−0.143*Time
Description: Data analysis proceeded from data structure analysis in S-PLUS to linear/nonlinear mixed effects modeling in NONMEM to develop the exposure-QTc relationship for ANAVEX 2-73 and its active metabolite ANAVEX 19-144. The correction method used for QT interval was the Fridericia's correction. The bootstrap was used to determine the reliability/stability of the exposure-QTc models developed. This was necessary to determine if the modeling results obtained with data from the 17 subjects would be applicable to the population at large, given the sample size. […]
The approach used in characterizing exposure-QTc relationship was as follows: • 1) Concentration and QTc versus time plots were examined for any apparent trends or associations. • 2) Subject- and dose-specific QTc vs concentration plots were also examined for association as well as for the presence of any hysteresis indicative of temporal dissociations, i.e., indirect effects. • 3) All of the QTc measurements were plotted against the paired concentration measurements. […] Additionally, models incorporating cooperativity of drug action such as competitive antagonism between ANAVEX 2-73 and ANAVEX 19-144 concentrations and QTc effect were evaluated, as warranted, using nonlinear mixed effects modeling. […]

[1] = test system: human subjects with sustained atrial fibrillation (AF); experiment: treatment of atrial fibrillation with A2-73 (Examples 1 and 4); assay type: in vivo; settings: for AF recurrence: 30 day follow-up; for serious adverse events: to end of 30 day follow-up
Experimental: The safety, tolerability, and short term efficacy of […] A subject with symptomatic AF (72 hr duration) receives 30 mg of A2-73 orally every day. Dosing is initiated in hospital and continues in weekly follow-up visits. Efficacy is assessed as absence of AF recurrence on weekly 12-lead ECG and daily transtelephonic monitoring during the study. The safety, tolerability, and short term efficacy of […] A subject with symptomatic AF (72 hr duration) is administered intravenously 30 mg of A2-73 every day. Dosing is initiated in hospital and continues in weekly follow-up visits. Efficacy is assessed as absence of AF recurrence on weekly 12-lead ECG and daily transtelephonic monitoring during the study.

[2] = test system: human subjects with sustained atrial flutter; experiment: treatment of atrial flutter with A2-73 (Example 2); assay type: in vivo; settings: Example 2: 60 mg orally daily
Experimental: The safety, tolerability, and short term efficacy of […] 2-73 in human subjects with sustained atrial flutter as follows. A subject with atrial flutter (72 hr duration) receives 60 mg of A2-73 orally daily. Dosing is initiated in hospital and continues in weekly follow-up visits. Efficacy is assessed as absence of atrial flutter recurrence on weekly 12-lead ECG and daily transtelephonic monitoring during the study.

[3] = phase 2a studies, highest observed Cmax and extrapolation to 200 mg dose; settings: human, in vivo, footnote b, Alzheimer's disease patients, paired with ANAVEX 2-73 value, read-out: ANAVEX 19-144 Concentration, highest observed Cmax in phase 2a studies
Experimental: Estimates are employed to apply the Exposure-QTcF relationship using observed and unlikely to be observed concentrations of the parent drug and metabolite QTc intervals are predicted, given the parameter estimates obtained with the exposure-QTcF model developed. […] The predicted QTcF for that subject is 410.67 ms, given the corresponding concentration of ANAVEX 19-144 being 38.3 ng/mL (Table 3). Thus, the QT corrected interval upon treatment with ANAVEX 2-73 is predicted to be below 420 ms.
Observed and unlikely to be observed concentrations of the parent drug and metabolite are used to predict heart rate, given the parameter estimates obtained with the exposure-heart rate model developed. […] Thus, the heart rate upon treatment with ANAVEX 2-73 is predicted to be below 75 beats/min.

[4] = test system: human subjects with sustained ventricular fibrillation; experiment: treatment of ventricular fibrillation with A19-144 (Example 3); assay type: in vivo; settings: Example 3: 40 mg orally daily in two 20 mg doses
Experimental: The safety, tolerability, and short term efficacy of […] A subject with symptomatic ventricular fibrillation (72 hr duration) receives 40 mg of A19-144 orally daily in two 20 mg doses. Dosing is initiated in hospital and continues in weekly follow-up visits. Efficacy is assessed as absence of ventricular fibrillation recurrence on weekly 12-lead ECG and daily transtelephonic monitoring during the study.

sigma-1 receptors = sigma-1 receptors (Homo sapiens, UniProt Q99720); settings: stated as 'is believed to bind'; cited from earlier work
[5] = Example 1: 30 mg orally every day
[6] = Example 4: 30 mg intravenously every day

Sequence of sigma-1 receptors (Q99720 whole entry): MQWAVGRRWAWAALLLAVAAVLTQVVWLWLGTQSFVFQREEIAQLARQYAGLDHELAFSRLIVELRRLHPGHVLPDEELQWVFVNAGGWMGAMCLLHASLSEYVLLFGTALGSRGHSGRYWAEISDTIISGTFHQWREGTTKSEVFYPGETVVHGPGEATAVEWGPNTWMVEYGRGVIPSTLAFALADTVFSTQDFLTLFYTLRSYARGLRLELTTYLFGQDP

Row | Structure (SMILES) | slope on Parent in final exposure-QTcF model (male healthy subjects) | time to cessation of AF [1, 5] [h] | AF recurrence [1, 5] | serious adverse events [1, 5] | time to cessation of AF [1, 6] [h] | AF recurrence [1, 6] | serious adverse events [1, 6] | time to cessation of arrhythmia [2] [h] | recurrence ([2]; 30 day follow-up) | serious adverse events ([2]; to end of 30 day follow-up) | Cmax ([3]; 50 mg) [ng/mL] | Cmax [3] [ng/mL] | time to cessation of ventricular fibrillation [4] [h] | ventricular fibrillation recurrence ([4]; 30 day follow-up) | serious adverse events ([4]; to end of 30 day follow-up) | affinity for sigma-1 receptors (sigma-1 receptors)
1 | CN(C)CC1CCOC1(c1ccccc1)c1ccccc1.Cl (stereo not shown) [ANAVEX 2-73, 1-(2,2-diphenyltetrahydrofuran-3-yl)-N,N-dimethylmethanamine hydrochloride] | 0.196 | ≤ 12 | does not recur | no serious adverse events occur | ≤ 12 | does not recur | no serious adverse events occur | ≤ 12 | does not recur | no serious adverse events occur | – | – | – | – | – | –
2 | CNCC1CCOC1(c1ccccc1)c1ccccc1.Cl (stereo not shown) [ANAVEX 19-144, 1-(2,2-diphenyltetrahydrofuran-3-yl)-N-methylmethanamine hydrochloride] | – | – | – | – | – | – | – | – | – | – | 11.1 | 23.1 | ≤ 12 | does not recur | no serious adverse events occur | low micromolar range
